Laboratory results reported in patent US6875760B2 (Novo Nordisk A/S, priority 1999, dated 2005).

Target: T1, human glucagon receptor (Homo sapiens, UniProt P47871)
T1 construct: expressed in transfected cells; host or cells: BHK (baby hamster kidney) cells
Experiment: Glucagon Binding Assay (III)
Conditions: BHK cell membranes, WGA SPA beads, 125I-glucagon; read-out: Glu Bd Assay (III) IC50
Outline: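 Membranes from BHK cells transfected with the human receptor, prepared at 4 °C, were used in a WGA-bead scintillation proximity binding format. Plates were shaken for 4 hours, left to settle 8–48 hours and then counted. Non-specific binding was defined with 500 nM glucagon.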

T1 sequence (P47871 26-477): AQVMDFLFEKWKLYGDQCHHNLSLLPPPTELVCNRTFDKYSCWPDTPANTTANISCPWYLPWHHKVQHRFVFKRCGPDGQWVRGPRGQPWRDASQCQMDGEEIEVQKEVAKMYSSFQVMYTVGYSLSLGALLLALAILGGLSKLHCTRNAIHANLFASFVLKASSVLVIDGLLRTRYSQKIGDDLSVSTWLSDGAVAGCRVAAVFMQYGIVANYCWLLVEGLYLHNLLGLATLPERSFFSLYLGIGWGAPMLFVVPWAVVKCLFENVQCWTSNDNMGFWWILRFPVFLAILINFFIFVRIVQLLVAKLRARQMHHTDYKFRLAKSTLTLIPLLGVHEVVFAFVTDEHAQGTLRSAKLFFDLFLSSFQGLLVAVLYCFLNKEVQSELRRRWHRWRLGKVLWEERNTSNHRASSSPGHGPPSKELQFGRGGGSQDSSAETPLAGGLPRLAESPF

Compound	IC50 [nM]
CC(C)N1C(=O)c2ccc(NC(=O)N(Cc3ccc(C(=O)NCCC(=O)O)cc3)c3ccc(C4CCCCC4)cc3)cc2C1=O [Example 631, 3-{4-[1-(4-Cyclohexyl-phenyl)-3-(N′-isopropylphthalimid-4-yl)ureidomethyl]benzoylamino}propionic acid]	23
CC(C)Cc1ccc(C(=O)N(Cc2ccc(C(=O)Nc3nn[nH]n3)cc2)C2CCC(C(C)(C)C)CC2)cc1 (stereo not shown) [Example 511, 4-{[(4-tert-Butylcyclohexyl)-(4-isobutylbenzoyl)amino]methyl}-N-(2H-tetrazol-5-yl)benzamide]	58
O=C(Nc1nn[nH]n1)c1ccc(CN(C(=O)CSCc2ccccc2)c2ccc(C3CCCCC3)cc2)cc1 [Example 532, 4-{[(2-Benzylsulfanylacetyl)-(4-cyclohexylphenyl)amino]methyl}-N-(2H-tetrazol-5-yl)benzamide]	626
O=C(O)CCNC(=O)c1ccc(CN(NC(=O)c2ccc(OC(F)(F)F)cc2)C2CCC3CCCCC3C2)cc1 (stereo not shown) [Example 427, 3-{4-[N-(Decahydronaphthalen-2-yl)-N′-(4-trifluoromethoxybenzoyl)hydrazinomethyl]benzoylamino}propionic acid]	512
O=C(Nc1nn[nH]n1)c1ccc(CN(C(=O)CCCc2ccccc2)c2ccc(C3CCCCC3)cc2)cc1 [Example 535, 4-{[(4-Cyclohexylphenyl)-(4-phenylbutyryl)amino]methyl}-N-(2H-tetrazol-5-yl)benzamide]	224
CC(C)c1ccc(NC(=O)N(CCc2ccc(Cl)cc2)Cc2ccc(C(=O)NCCC(=O)O)cc2)cc1 [Example 52, 3-{4-[1-[2-(4-Chlorophenyl)ethyl]-3-(4-isopropylphenyl)ureidomethyl]benzoylamino}propionic acid]	383
(4-tert-Butylcyclohexyl)-3-(N′-[cyclopropylmethyl]phthalimid-4-yl)ureidomethyl]-N-(2H-tetrazol-5-yl)benzamide [Example 638]	11
CC(C)(C)c1ccc(N(Cc2ccc(C(=O)Nc3nn[nH]n3)cc2)C(=O)Nc2cccc(C(N)=O)c2)cc1 [Example 459, 3-{3-(4-tert-Butylphenyl)-3-[4-(2H-tetrazol-5-ylcarbamoyl)benzyl]ureido}benzamide]	2110
CC(C)(C)C1CCC(N(Cc2ccc(C(=O)NCCC(=O)O)cc2)C(=O)c2cc3cc(Cl)ccc3o2)CC1 (stereo not shown) [Example 562, 3-(4-{[(4-tert-Butylcyclohexyl)-(5-chlorobenzofuran-2-carbonyl)amino]methyl}benzoylamino)propionic acid]	146
O=C(O)CCNC(=O)c1ccc(CN(C(=O)Nc2ccc(OC(F)(F)F)cc2)C2CCC(=C3CC3)CC2)cc1 (stereo not shown) [Example 248, 3-{4-[1-(4-Cyclopropylidenecyclohexyl)-3-(4-trifluoromethoxyphenyl)ureidomethyl]benzoylamino}propionic acid]	571
CC(C)(C)C1CCC(N(Cc2ccc(C(=O)Nc3nn[nH]n3)cc2)C(=O)c2ccc(Cc3ccccc3)cc2)CC1 (stereo not shown) [Example 512, 4-{[(4-tert-Butylcyclohexyl)-(4-benzylbenzoyl)amino]methyl}-N-(2H-tetrazol-5-yl)benzamide]	111
CC(C)(C)C1CCC(N(Cc2ccc(C(=O)NCCC(=O)O)cc2)C(=O)Nc2ccccc2-c2ccccc2)CC1 (stereo not shown) [Example 28, 3-{4-[3-Biphenyl-2-yl-1-(4-tert-butylcyclohexyl)ureidomethyl]benzoylamino}propionic acid]	266
O=C(O)CCNC(=O)c1ccc(CN(C(=O)Oc2ccc(Cl)cc2Cl)c2ccc(C3CCCCC3)cc2)cc1 [Example 416, 3-(4-{[(4-Cyclohexylphenyl)-(2,4-dichlorophenoxycarbonyl)amino]methyl}benzoylamino)propionic acid]	634
O=C(Nc1nn[nH]n1)c1ccc(CN(C(=O)Nc2cccc([N+](=O)[O-])c2)c2ccc(OC(F)(F)F)cc2)cc1 [Example 285]	151
O=C(O)CCNC(=O)c1ccc(CN(C(=O)c2cc(F)cc(C(F)(F)F)c2)C2CCC3(CCCCC3)CC2)cc1 [Example 618, 3-(4-{[(3-Fluoro-5-trifluoromethylbenzoyl)spiro[5.5]undec-3-yl-amino]methyl}benzoylamino)propionic acid]	1070
CC(C)(C)c1ccc(N(Cc2ccc(C(=O)Nc3nn[nH]n3)cc2)C(=O)Nc2cccc(S(C)(=O)=O)c2)cc1 [Example 449, 4-[1-(4-tert-Butylphenyl)-3-(3-methylsulfonylphenyl)ureidomethyl]-N-(2H-tetrazol-5-yl)benzamide]	195
CC(C)(C)c1ccc(N(Cc2ccc(C(=O)NCCC(=O)O)cc2)C(=O)Nc2ccc3c(c2)C(=O)N(CC2CC2)C3=O)cc1 [Example 643, 3-{4-[3-(N′-[Cyclopropylmethyl]phthalimid-4-yl)-1-(4-tert-butylphenyl)ureidomethyl]benzoylamino}propionic acid]	38
O=C(Nc1nn[nH]n1)c1ccc(CN(C(=O)c2ccc(Cc3ccccc3)cc2)c2ccc(N3CCCCC3)cc2)cc1 [Example 519, 4-{[(4-Benzylbenzoyl)-(4-piperidin-1-ylphenyl)amino]methyl}-N-(2H-tetrazol-5-yl)benzamide]	908
CCN(c1ccccc1)S(=O)(=O)c1cc(NC(=O)N(Cc2ccc(C(=O)NCCC(=O)O)cc2)[C@H]2CC[C@H](C3CCCCC3)CC2)ccc1C [Example 390, 3-(4-{1-(trans-4-Cyclohexylcyclohexyl)-3-[3-(N-ethyl-N-phenylsulfamoyl)-4-methylphenyl]ureidomethyl}benzoylamino)propionic acid]	6
CC(C)(C)C1CCC(N(Cc2ccc(C(=O)NCCC(=O)O)cc2)C(=O)Nc2ccc([N+](=O)[O-])cc2)CC1 (stereo not shown) [Example 67, 3-{4-[1-(4-tert-Butylcyclohexyl)-3-(4-nitrophenyl)ureidomethyl]benzoylamino}propionic acid]	891

Now from value to compound:

IC50 [nM]	Compound
9	O=C(Nc1nn[nH]n1)c1ccc(CN(C(=O)Nc2cc(Br)cc(C(F)(F)F)c2)c2ccc(C3CCCCC3)cc2)cc1 [Example 264, 4-[3-(3-Bromo-5-trifluoromethylphenyl)-1-(4-cyclohexylphenyl)ureidomethyl]-N-(2H-tetrazol-5-yl)benzamide]
264	CC(Oc1ccc(Cl)cc1)C(=O)N(Cc1ccc(C(=O)Nc2nn[nH]n2)cc1)c1ccc(C2CCCCC2)cc1 (stereo not shown) [Example 491, 4-{[[2-(4-Chlorophenoxy)propionyl]-(4-cyclohexylphenyl)amino]methyl}-N-(2H-tetrazol-5-yl)benzamide]
505	O=C(Nc1nn[nH]n1)c1ccc(CN(C(=O)c2ccc(C3CCCCC3)cc2)c2ccc(C3CCCCC3)cc2)cc1 [Example 484, 4-{[(4-Cyclohexylphenyl)-(4-cyclohexylbenzoyl)amino]methyl}-N-(2H-tetrazol-5-yl)benzamide]
444	CC(C)Cc1ccc(C(=O)N(Cc2ccc(C(=O)Nc3nn[nH]n3)cc2)c2ccc(C3CCCCC3)cc2)cc1 [Example 507, 4-{[(4-Cyclohexylphenyl)-(4-isobutylbenzoyl)amino]methyl}-N-(2H-tetrazol-5-yl)benzamide]
52	Cn1nnc(-c2cccc(NC(=O)N(Cc3ccc(C(=O)Nc4nn[nH]n4)cc3)c3ccc(C4CCCCC4)cc3)c2)n1 [Example 371]
101	CN(C)S(=O)(=O)c1cccc(NC(=O)N(Cc2ccc(C(=O)Nc3nn[nH]n3)cc2)c2ccc(C3CCCCC3)cc2)c1 [Example 275, 4-[1-(4-Cyclohexylphenyl)-3-(3-dimethylsulfamoylphenyl)ureidomethyl]-N-(2H-tetrazol-5-yl)benzamide]
136	O=C(Nc1nn[nH]n1)c1ccc(CN(C(=O)Cc2ccc3ccccc3c2)c2ccc(C3CCCCC3)cc2)cc1 [Example 499, 4-{[(4-Cyclohexylphenyl)-(2-naphth-2-ylacetyl)amino]methyl}-N-(2H-tetrazol-5-yl)benzamide]
192	CC(=O)c1ccc(NC(=O)N(Cc2ccc(C(=O)Nc3nn[nH]n3)cc2)c2ccc(C3CCCCC3)cc2)cc1 [Example 272, 4-[3-(4-Acetylphenyl)-1-(4-cyclohexylphenyl)ureidomethyl]-N-(2H-tetrazol-5-yl)benzamide]
53	O=C(Nc1nn[nH]n1)c1ccc(CN(C(=O)Nc2ccc(S(=O)(=O)C(F)(F)F)cc2)c2ccc(C3CCCCC3)cc2)cc1 [Example 455, 4-[1-(4-Cyclohexylphenyl)-3-(4-trifluoromethylsulfonylphenyl)ureidomethyl]-N-(2H-tetrazol-5-yl)benzamide]
16	N#Cc1cc(NC(=O)N(Cc2ccc(C(=O)Nc3nn[nH]n3)cc2)c2ccc(C3CCCCC3)cc2)cc(C(F)(F)F)c1 [Example 359, 4-[3-(3-Cyano-5-trifluoromethylphenyl)-1-(4-cyclohexylphenyl)ureidomethyl]-N-(2H-tetrazol-5-yl)benzamide]
45	O=C(Nc1nn[nH]n1)c1ccc(CN(C(=O)Nc2cc(Cl)cc(Cl)c2)c2ccc(C3CCCCC3)cc2)cc1 [Example 304, 4-[1-(4-Cyclohexylphenyl)-3-(3,5-dichlorophenyl)ureidomethyl]-N-(2H-tetrazol-5-yl)benzamide]
1090	O=C(Nc1nn[nH]n1)c1ccc(CN(C(=O)Nc2cc(Cl)sc2Cl)c2ccc(C3CCCCC3)cc2)cc1 [Example 335, 4-[1-(4-Cyclohexylphenyl)-3-(2,5-dichlorothiophen-3-yl)ureidomethyl]-N-(2H-tetrazol-5-yl)benzamide]

Same assay, conditions: Glu Bd Assay (III) IC50 (nM), BHK cell membranes, WGA SPA beads, 125I-glucagon

Compound	IC50 [nM]
CC(C)(C)[C@H]1CC[C@H](N(Cc2ccc(C(=O)NCCC(=O)O)cc2)C(=O)Nc2ccc(C#N)cc2OC(F)(F)F)CC1 [Example 247, 3-{4-[1-(trans-4-tert-Butylcyclohexyl)-3-(4-cyano-2-trifluoromethoxyphenyl)ureidomethyl]benzoylamino}propionic acid]	215
CC(C)(C)[C@H]1CC[C@H](N(Cc2ccc(C(=O)NCC(=O)O)cc2)C(=O)Nc2ccc(OC(F)(F)F)cc2)CC1 [Example 95, 3-{4-[1-(trans-4-tert-Butylcyclohexyl)-3-(4-trifluoromethoxyphenyl)ureidomethyl]benzoylamino}acetic acid]	1700
